The NIST ThermoML archive (doi:10.1016/j.jct.2018.09.029)
± gives the expanded uncertainty stated by the source.

Test: Boiling temperature at pressure P
Details: 82.6 kPa; Liquid; Ebulliometric method (Recirculating still)

O [water]
Boiling temperature at pressure P: 94.41 ± 0.63 °C
